Laboratory results from the OPERA property sets (Mansouri et al. 2018).

Conditions: for log10 BCF / log10 biotransformation half-life (days): fish

SMILES	melting point [°C]	boiling point [°C]	log10 vapour pressure (mmHg)	other results
Oc1ccc(O)c(Br)c1	112			
CCN1CCCC(N)C1 (centres undefined)		155		
C=C(C)C(C)(C)C	-110	77.9	2.05	
COC1[C@@H](O[C@@H]2O[C@H](C)[C@@H](O[C@H]3C[C@@](C)(O)[C@H](OC(=O)CC(C)C)[C@H](C)O3)[C@H](N(C)C)[C@H]2O)[C@@H](CC=O)C[C@@H](C)[C@@H](O)C=CC=CC[C@@H](C)OC(=O)C[C@H]1OC(C)=O (some centres undefined)	132			
FC(F)OCC(F)(F)F		29.3	2.81	
Cc1ccc(S)c(S)c1	29			
O=Cc1ccc(O)c([N+](=O)[O-])c1	141		-3.05	
Cc1cccc(CBr)c1		212		
OC1c2ccccc2Oc2ccccc21	128			
CCOc1ccc(NC(C)=O)cc1	138	244	-6.16	log10 Koa: 9.59; ready biodegradability: not readily biodegradable; log10 BCF: 1.48; log10 biotransformation half-life (days): -0.55
COCC(F)(F)C(F)C(F)(F)F (centres undefined)		87.5	1.79	
CC1(C)C(=O)[C@@]2(C)CC[C@@H]1C2		193		
COc1cc(C#N)cc(OC)c1OC	93.8			
CC(=O)OC(C(=O)Cl)c1ccccc1 (centres undefined)	36			
O=[N+]([O-])c1ccc(S(=O)(=O)O)cc1				ready biodegradability: not readily biodegradable
CCOC(=O)c1cccc(OC)c1		260		
ClC(Cl)(Cl)Br	-5.7	105	1.59	
c1cc2ccc3ccc4ccc5ccc6ccc1c1c2c3c4c5c61	437	525	-11.7	log10 biodegradation half-life (days): 2.87
Nc1ccccc1S(=O)(=O)O				ready biodegradability: not readily biodegradable
FC(I)I	-34.5	100		
c1ccoc1	-85.6	31.5	2.78	ready biodegradability: not readily biodegradable; log10 BCF: 0.7; log10 biotransformation half-life (days): -0.84
FC(Br)(Br)Br	-73.6	108		
O=[N+]([O-])c1cccc(Cl)c1Cl	61.5	258		ready biodegradability: not readily biodegradable; log10 BCF: 2.16; log10 biotransformation half-life (days): 0.54

SMILES	melting point [°C]	boiling point [°C]	log10 vapour pressure (mmHg)	other results
CCCCCCCCCCCCCCCCCCCCCCCCCCCC	64.5	432	-8.8	log10 biodegradation half-life (days): 2.1; ready biodegradability: readily biodegradable
CN(C)c1ccc(N=Nc2ccc([N+](=O)[O-])cc2)cc1	236		-10	
Cc1c(C)c([N+](=O)[O-])c(C)c(C)c1[N+](=O)[O-]	212			
CCOc1cc(C=O)ccc1O	77.5	294	-4.98	ready biodegradability: readily biodegradable
Oc1cc(Cl)ccc1Cl	59	211	-1.25	ready biodegradability: not readily biodegradable; log10 BCF: 1.01
O=C(O)CCCCCCCCCCF	36			
CCC1(C2=CCCCCC2)C(=O)NC(=O)NC1=O	174			
O=C(O)C=Cc1ccccc1				ready biodegradability: readily biodegradable
C=CCC1(C(C)CC)C(=O)NC(=O)NC1=O (centres undefined)	109			
COc1ccc(Cc2nccc3cc(OC)c(OC)cc23)cc1OC	148			
COCC1CCCO1 (centres undefined)		140		
CCCNCCO		183		
Oc1c(Br)cc(Br)cc1Br	95.5	286		ready biodegradability: readily biodegradable; log10 BCF: 2.71
CCC(C)(CC)CC(C)C		161		
CCC(C)Nc1ccc(NC(C)CC)cc1 (centres undefined)	18			
CC(=O)C(C)(C)C	-52.5	106	1.5	
Brc1cc2c(cc1Br)Oc1ccccc1O2	158		-5.92	
C[n+]1cc2c3c(ccc2c2ccc4cc5c(cc4c21)OCO5)OCO3	266			
CC(C)(C)c1cc(C(C)(C)C)c(O)c(C(C)(C)C)c1	131	278	-3.18	ready biodegradability: not readily biodegradable; log10 BCF: 4.14; log10 biotransformation half-life (days): 1.81
O=CC(Cl)Cl		89.2	1.74	
CCOC(=O)COC(=O)c1ccccc1C(=O)OCC				log10 Koc (L/kg): 2.54
O=C(O)c1ccc2c(c1)CCCC2	156			
CC(CN1C(=O)c2cccnc2Nc2ccccc21)N(C)C (centres undefined)	122			

SMILES	melting point [°C]	boiling point [°C]	log10 vapour pressure (mmHg)	other results
C=CCC	-185	-6.2	3.35	log10 Henry constant (atm·m³/mol): -0.633
N#CCc1ccccc1F		232		
BrCCCCCBr	-39.5	222		
C=CCNc1ccccc1		219		
Cc1ccc(/N=C/N(C)/C=N/c2ccc(C)cc2C)c(C)c1	86		-5.7	log10 Henry constant (atm·m³/mol): -5.01; log10 Koc (L/kg): 3
[N-]=[N+]=Nc1ccccc1	-27.5			
COc1cc(Oc2ccc(Cl)cc2Cl)ccc1[N+](=O)[O-]	114		-4.85	log10 BCF: 3.59
COc1ccc(F)cc1	-45	157		
Cc1cccc(C(C)C)c1	-63.7	175	0.235	ready biodegradability: not readily biodegradable; log10 BCF: 2.73; log10 biotransformation half-life (days): 0.07
CNC(=O)ON=C(SC)C(=O)N(C)C	101			log10 Koc (L/kg): 1
C[Si](C)(C)C	-99	26.6	2.86	
C#CCOC(=O)/C=C(C)/C=C/CC(C)CCCC(C)C (centres undefined)			-5.14	
O=c1[nH]cccc1O				ready biodegradability: not readily biodegradable
CC1(C)COC(=O)C1O (centres undefined)	92			ready biodegradability: readily biodegradable
FC(F)C(F)F	-89	-19.9		
O=C(CCl)OCCOC(=O)CCl	45.5			
Clc1cc(Cl)c2cc(Cl)cc(Cl)c2c1	180			log10 Koa: 7.9
Oc1cc(O)cc(-c2cc(O)cc(O)c2)c1	310			
CCNc1ccc2ccccc2c1	236	316		
CC(=O)OOC(C)=O	30			
COC(=O)C1(S(=O)(=O)c2ccccc2)CCCCC1	114			
c1ccc(-c2ccc3ncccc3c2)cc1	110			
N#CCNCC#N	70		-2.47	

SMILES	melting point [°C]	boiling point [°C]	log10 vapour pressure (mmHg)	other results
Cc1ccc2sccc2c1	20.5			
O=C(OC(=O)C(Cl)(Cl)Cl)C(Cl)(Cl)Cl			-0.908	
ON=Cc1ccncc1	132			
Clc1cc(Cl)c2c(oc3c(Cl)cccc32)c1Cl	177			
CC(C)(I)I		173		
CCCC(O)(CC)CCC		182		
COCCC#N		163		
CCOCCOCCOC(C)=O	-25	218	-1	ready biodegradability: readily biodegradable
Cc1cccc(N=Cc2ccccc2)c1	31	315		
O=C1c2cc([N+](=O)[O-])ccc2-c2ccc([N+](=O)[O-])cc21	294			
CCN(CC)c1ccc(Br)cc1	38	270		
O=C(O)c1cc(O)ccc1O	200			
O=C1C=CC(=O)C1	37			
O=C(OC(Cl)(Cl)Cl)C(Cl)(Cl)Cl	34	192		
CC(CCl)OC(C)CCl (centres undefined)	-97	187	-0.252	log10 Koc (L/kg): 1.67; ready biodegradability: not readily biodegradable; log10 BCF: 1.08; log10 biotransformation half-life (days): -1.07
Cc1[nH]nc(Cl)c1[N+](=O)[O-]	111			
CC(CC(C)(C)C)CC(C)(C)C	-67	178		log10 BCF: 2.94; log10 biotransformation half-life (days): 0.72
CC(COc1ccccc1)N(CCCl)Cc1ccccc1 (centres undefined)	39			
CCC(C)C(C)(C)CC (centres undefined)	-101	140	0.948	
COc1cc(O)c(C(=O)c2ccccc2)cc1S(=O)(=O)O	145			
c1ccc(CCc2ccccc2)cc1	52.5	284	-2.14	ready biodegradability: readily biodegradable
